Measured values: paper PMC8762250, “Identification of Novel Chemical Scaffolds that Inhibit the Growth of Mycobacterium tuberculosis in Macrophages” (Frontiers in Pharmacology, 2022)
Where two headings read alike, the source gives them in different places. Marks after values point to notes of the source that are not given here.

What was measured:
[1] = HepG2 cytotoxicity (CellTiter-Glo, 72 h); type: cell-based, human; conditions: human
Experimental: (§1) Cytotoxicity against HepG2 cells was measured after 72 h. Cells were seeded in 384-well plates at 1,800 cells per well. Compounds were added as a 10-point three-fold serial dilution after 24 h (final assay concentration of 1% DMSO). CellTiter-Glo® reagent (Promega) was added and relative luminescence units (RLU) measured. Data were normalized to the DMSO controls. Curves were fitted using the Levenberg–Marquardt algorithm; TC50 was calculated as the compound concentration required to reduce cell viability by 50%.
(§2) We further evaluated cytotoxicity using the HepG2 cell line cultured with either glucose or galactose in the medium (Table 2). HepG2 cells cultured with galactose rely on mitochondrial oxidative phosphorylation rather than glycolysis which increases their susceptibility to mitochondrial toxicants allowing us to identify compounds with mitochondrial toxicity ([Kamalian et al., 2015]).

M. tuberculosis [2] = assay: Minimum inhibitory concentration in liquid medium (axenic culture); type: cell-based, Mycobacterium tuberculosis; conditions: Mycobacterium tuberculosis; for IC50: read-out: Anti-tubercular activity in axenic culture IC50
M. tuberculosis [3] = assay: High content assay of intracellular M. tuberculosis growth in infected RAW264.7 macrophages; type: cell-based, Mycobacterium tuberculosis H37Rv-LP
Experimental: Compounds were obtained in 384-well plates as 10 mM DMSO stock solutions and tested as described ([Manning et al., 2017]). Briefly, assay plates were prepared in clear bottom, black 384-well plates with 30 μl cRPMI and 0.6 μl compound in columns 3–22 (final concentration of 10 μM compound, 1% DMSO). […] INH and STA were also included in dose response on each plate. RAW264.7 cells were infected with M. tuberculosis DREAM8 as described ([Manning et al., 2017]) at an MOI of 1 for 24 h and extracellular bacteria removed by washing. Cells were recovered using Accumax, harvested, washed and resuspended in serum-free RPMI; 30 μl of infected cells were dispensed into each well at 3,300 cells/well. Plates were incubated for 72 h, 10 μl of 5X SYBR Green I was added and plates were imaged with an ImageXpress Micro High Content Screening System (Molecular Devices) using a ×4 objective and FITC and Texas Red channels. MetaXpress was used to analyze images. The integrated intensity of M. tuberculosis or macrophages was calculated for each well. Growth inhibition was calculated for each test well by normalizing to the average integrated intensity of the DMSO control wells. IC50 was calculated as the compound concentration required to reduce bacterial growth by 50%. TC50 was calculated as the compound concentration required to reduce macrophage viability by 50%.

RAW264.7 cells = assay: Macrophage viability in the same high content assay; conditions: for Intracellular RAW TC50 / Intracellular activity Cytotoxicity TC50: infected RAW264.7 macrophages; for Intracellular RAW TC50: SAR tables 4-8; for selectivity index (SI): HepG2 cells and/or macrophages, cell line not specified; for Intracellular activity Cytotoxicity TC50: 72 h; for selectivity index (TC50/IC50): macrophage TC50 / intracellular IC50
HepG2 cells = assay: HepG2 cytotoxicity (CellTiter-Glo, 72 h); type: cell-based, human; conditions: for selectivity (SI) for HepG2: HepG2 cytotoxicity / intracellular IC50; for HepG2 cytotoxicity TC50 Galactose / HepG2 cytotoxicity TC50 Glucose: human, 72 h
Experimental: as §1, §2

[4] = HepG2 cytotoxicity IC50 Galactose
[5] = HepG2 cytotoxicity IC50 Glucose
[6] = axenic culture, SAR tables 4-8, read-out: Extracellular IC90
[7] = Mycobacterium tuberculosis, RAW264.7, in RAW264.7 macrophages, SAR tables 4-8, read-out: Intracellular Mtb IC50
[8] = 120 h, extracellular, 5 days, OD590
[9] = 120 h, extracellular, 5 days, OD590, read-out: Anti-tubercular activity in axenic culture IC90
[10] = Mycobacterium tuberculosis, RAW264.7, 72 h, M. tuberculosis in RAW264.7 cells, MOI 1, 72 h, read-out: Intracellular activity Anti-tubercular activity IC50
[11] = in RAW264.7 macrophages, SAR tables 4-8, read-out: Intracellular Mtb IC50

SMILES | IC50 at 72 h [1, 4] [µM] | IC50 at 72 h [1, 5] [µM] | IC90 (M. tuberculosis [2]; [6]) [µM] | IC50 (M. tuberculosis [3]; [7]) [µM] | Intracellular RAW TC50 (RAW264.7 cells) | selectivity (SI) for HepG2 (HepG2 cells) | HepG2 cytotoxicity TC50 Galactose (HepG2 cells) | HepG2 cytotoxicity TC50 Glucose (HepG2 cells) | IC50 (M. tuberculosis [2]; [8]) [µM] | IC90 (M. tuberculosis [2]; [9]) [µM] | IC50 (M. tuberculosis [3]; [10]) [µM] | selectivity index (SI) (RAW264.7 cells) | Intracellular activity Cytotoxicity TC50 (RAW264.7 cells) | activity against intracellular M. tuberculosis (M. tuberculosis [3]) | IC50 (M. tuberculosis [3]; [11]) [µM] | selectivity index (TC50/IC50) (RAW264.7 cells) | IC50 (M. tuberculosis [3]; in RAW264.7 macrophages, SAR tables 4-8, listed as 26, read-out: Intracellular Mtb IC50) [µM] | IC50 (M. tuberculosis [3]; in RAW264.7 macrophages, SAR tables 4-8, listed as 29, read-out: Intracellular Mtb IC50) [µM] | IC50 (M. tuberculosis [3]; Mycobacterium tuberculosis, RAW264.7, read-out: Intracellular Mtb IC50, in RAW264.7 macrophages, SAR tables 4-8) [µM]
O=C(COc1ccc2ccccc2c1)Nc1ccncc1 [TPN-0006212] | 61 ± 4 | > 100 | > 20 | 8.2 ± 1.7 | >100 ^b µM |  |  |  |  |  |  |  |  |  |  |  |  |  | 
COc1ccc(OCC(=O)Nc2sc3c(c2C(=O)NC2CCS(=O)(=O)C2)CCCC3)cc1 (centres unmarked) [TPN-0073584] | > 100 | > 100 | > 20 | 5.1 ± 1.7 | >100 ^c µM | 20 | >100 ^c µM | >100 ^c µM | > 20 | > 20 | 5.1 ± 1.7 | > 10 | >100 ^b µM |  |  |  |  |  | 
CCc1ccc(OCC(=O)Nc2cccc3c2C(=O)OC3)cc1 [TPN-0006204] | 47 ± 17 | 59 ± 10 | > 20 | 10 ± 0.5 | >100 ^a µM |  | 47 ± 17 ^e µM | 59 ± 10 ^d µM | > 20 | > 20 | 11 ± 0.5 |  | >100 ^b µM |  |  |  |  |  | 
COCc1cc(C)nc2sc(C(=O)Nc3cccc(Cl)c3)c(N)c12 [TPN-0073022] | 64 | 51 | > 20 | > 100 | 15 ± 9 ^b µM |  |  |  |  |  |  |  |  | not active |  |  |  |  | 
Nc1c(C(=O)N2CCCC2)sc2nc(-c3ccccc3)ccc12 [TPN-0073027] | 64 ± 12 | 72 ± 22 | > 20 | < 10 | >100 ^g µM |  | 64 ± 10 ^e µM | 82 ± 25 ^d µM | > 20 | > 20 | 5.8 ± 2.1 |  | >100e µM |  | 6.8 ± 3.3 |  |  |  | 
O=C(CSc1ccccc1)Nc1ccc(Br)cc1 [TPN-0006205] | > 100 | > 100 | > 20 | 1.4 ± 0.6 | 57 ± 24 ^c µM |  | >100 ^c µM | >100 ^e µM | > 20 | > 20 | 1.4 ± 0.64 |  | 57 ± 23 ^c µM | good intracellular activity |  | 40 |  |  | 
CCCOc1ccc(C(=O)Nc2sc(C)c(C)c2C(N)=O)cc1 [TPN-0073576] | 89 ± 5.5 | 83 ± 2.9 | > 20 |  | >100 ^d µM | > 80 | 92 ± 7 ^c µM | 83 ± 2.9 ^c µM | > 20 | > 20 | 1.1 ± 0.36 | > 10 | >100 ^d µM |  | 1 ± 0.4 |  | < 5 |  | 
CCc1ccccc1NC(=O)c1c(NC(=O)c2cccc(Cl)c2)sc2c1CCC2 [TPN-0073585] | > 25 | > 25 | > 5 |  | 9.4 ± 1.9 ^c µM | > 60 | >25 ^c µM | >25 ^c µM | > 5 | > 5 | 0.4 ± 0.11 | > 10 | 9.4 ± 1.9 ^c µM |  |  |  |  | < 5 | 
CCOc1ccc(NC(=S)Nc2ccccc2)cc1 [TPN-0073062] | > 100 | > 100 | > 20 |  | >100 ^d µM |  | >100 ^e µM | >100 ^e µM | 11 ± 5.3 | > 20 | 0.39 ± 0.13 |  | >100 ^d µM |  |  | > 250 |  |  | 0.4 ± 0.1
OCc1cn(-c2ccccc2)nc1-c1ccc(Br)cc1 [TPN-0073563] | 35 ± 3.7 | 34 |  | 4.3 ± 1.5 | 28 ± 7.0 ^e µM |  | 34 ± 1.9 ^c µM | 34 ± 0 ^c µM |  |  | 4.7 ± 1.1 |  | 28 ± 7.0 ^e µM |  |  |  |  |  | 
